Measurements from US20200325177A1, “METHODS OF MAKING STREPTOGRAMIN COMPOSITIONS AND THE USE THEREOF” (THE REGENTS OF THE UNIVERSITY OF CALIFORNIA, priority 2017, published 2020).
Values after ≈ are worked out from the molar mass of the structure shown. Like-named read-outs stand apart in the source and are kept apart here.

How the values were obtained:
Assay type in all cases: cell-based
[1] = tested on: K. pneumoniae multidrug-resistant; test: MIC, Gram-negative bacteria: K. pneumoniae multidrug-resistant; settings: Klebsiella pneumoniae, read-out: Minimal Inhibitory Concentration (MIC) K. pneumoniae multidrug-resistant
[2] = tested on: S. aureus Vat A streptogramin; test: MIC, Gram-positive bacteria: S. aureus Vat A streptogramin; settings: Staphylococcus aureus, read-out: Minimal Inhibitory Concentration (MIC) S. aureus Vat A streptogramin
[3] = tested on: P. aeruginosa MDR clinical isolate; test: MIC, Gram-negative bacteria: P. aeruginosa MDR clinical isolate; settings: Pseudomonas aeruginosa, read-out: Minimal Inhibitory Concentration (MIC) P. aeruginosa MDR clinical isolate
Gram-Negative Organisms = test: microbe, parasite or virus in culture
[4] = tested on: S. aureus Linezolid-resistant; cfr; test: MIC, Gram-positive bacteria: S. aureus Linezolid-resistant; cfr; settings: Staphylococcus aureus, column 9, read-out: Minimal Inhibitory Concentration (MIC) S. aureus Linezolid-resistant
S. aureus = test: MIC, Gram-positive bacteria: S. aureus (strains not named); settings: Staphylococcus aureus, read-out: Minimal Inhibitory Concentration (MIC) S. aureus
P. aeruginosa ATCC 27853 = test: MIC, Gram-negative bacteria: P. aeruginosa ATCC 27853; settings: Pseudomonas aeruginosa, ATCC27853, read-out: Minimal Inhibitory Concentration (MIC) P. aeruginosa ATCC 27853
S. pneumoniae = test: MIC, Gram-positive bacteria: S. pneumoniae; settings: Streptococcus pneumoniae, column 10, read-out: Minimal Inhibitory Concentration (MIC) S. pneumoniae
H. influenzae ATCC 49247 = test: MIC, Gram-negative bacteria: H. influenzae ATCC 49247; settings: Haemophilus influenzae, ATCC49247, read-out: Minimal Inhibitory Concentration (MIC) H. influenzae ATCC 49247
E. faecium ATCC 35667 = test: MIC, Gram-positive bacteria: E. faecium ATCC 35667; settings: Enterococcus faecium, ATCC35667, column 2, read-out: Minimal Inhibitory Concentration (MIC) E. faecium ATCC 35667
E. faecalis = test: MIC, Gram-positive bacteria: E. faecalis; settings: Enterococcus faecalis, column 1, read-out: Minimal Inhibitory Concentration (MIC) E. faecalis
E. faecium VRE; vanA = test: MIC, Gram-positive bacteria: E. faecium VRE; vanA; settings: Enterococcus faecium, column 3, read-out: Minimal Inhibitory Concentration (MIC) E. faecium VRE
[5] = Acinetobacter baumannii, ATCC19606, read-out: Minimal Inhibitory Concentration (MIC), A. baumannii ATCC 19606
[6] = Escherichia coli, ATCC25922, read-out: Minimal Inhibitory Concentration (MIC), E. coli ATCC 25922
[7] = Escherichia coli, read-out: Minimal Inhibitory Concentration (MIC), E. coli BAS2006, OMP C, OMP F
[8] = Escherichia coli, read-out: Minimal Inhibitory Concentration (MIC), E. coli olC efflux defective
[9] = Escherichia coli, read-out: Minimal Inhibitory Concentration (MIC), E. coli permeability mutant BAS1314, IMP4213ZAB::TN10
[10] = Escherichia coli, read-out: Minimal Inhibitory Concentration (MIC), E. coli ΔompC768, KanR insert
[11] = Klebsiella pneumoniae, ATCC43816, read-out: Minimal Inhibitory Concentration (MIC), K. pneumoniae ATCC 43816
[12] = first unnamed S. aureus column (c4)
[13] = fourth unnamed S. aureus column (c8)
[14] = second unnamed S. aureus column (c6)
[15] = third unnamed S. aureus column (c7)

| SMILES | MIC [1] [µg/mL] | MIC ([2]; Gram-positive, column 5) [µg/mL] | MIC [3] [µg/mL] | MIC (Gram-Negative Organisms; [5]) [µg/mL] | MIC (Gram-Negative Organisms; [6]) [µg/mL] | MIC (Gram-Negative Organisms; [7]) [µg/mL] | MIC (Gram-Negative Organisms; [8]) [µg/mL] | MIC (Gram-Negative Organisms; [9]) [µg/mL] | MIC (Gram-Negative Organisms; [11]) [µg/mL] | MIC [4] [µg/mL] | MIC (S. aureus; [12]) [µg/mL] | MIC (S. aureus; [13]) [µg/mL] | MIC (S. aureus; [14]) [µg/mL] | MIC (S. aureus; [15]) [µg/mL] | MIC (P. aeruginosa ATCC 27853) [µg/mL] | MIC (S. pneumoniae) [µg/mL] | MIC (H. influenzae ATCC 49247) [µg/mL] | MIC (E. faecium ATCC 35667) [µg/mL] | MIC (E. faecalis) [µg/mL] | MIC (E. faecium VRE; vanA) [µg/mL] | further results |
| --- | --- | --- | --- | --- | --- | --- | --- | --- | --- | --- | --- | --- | --- | --- | --- | --- | --- | --- | --- | --- | --- |
| CC(C)[C@H]1OC(=O)[C@H]2CCCN2C(=O)c2coc(n2)CC(=O)C[C@H](O)/C=C/C=C/CNC(=O)/C=C/[C@H]1C [SA0110239] | > 64 | > 64 | > 64 | > 64 | > 64 | 64 (≈ 125 µM) | 8 (≈ 15.6 µM) | 8 (≈ 15.6 µM) | > 64 | > 64 | > 64 | > 64 | > 64 | > 64 | > 64 | 64 (≈ 125 µM) | > 64 | > 64 | > 64 | > 64 | MIC (Gram-Negative Organisms; [10]): > 64 µg/mL |
| CC1=C\[C@@H](O)CC(=O)Cc2nc(co2)C(=O)N2CCC[C@@H]2C(=O)O[C@H]([C@@H](C)CO)[C@H](C)/C=C/C(=O)NC\C=C\1 [SA0110026] | > 64 | > 64 | > 64 | > 64 | > 64 | 64 (≈ 118 µM) | 32 (≈ 58.9 µM) | 64 (≈ 118 µM) | > 64 | > 64 | > 64 | > 64 | > 64 | > 64 | > 64 | 64 (≈ 118 µM) | 64 (≈ 118 µM) | 64 (≈ 118 µM) | > 64 | > 64 | – |
| CC1=C\[C@@H](O)CC(=O)Cc2nc(co2)C(=O)N2CCC[C@@H]2C(=O)O[C@H]([C@H](C)COC(=O)Nc2ccc3ccccc3n2)[C@H](C)/C=C/C(=O)NC\C=C\1 [SA0110223] | > 64 | 32 (≈ 44.8 µM) | > 64 | > 64 | > 64 | 16 (≈ 22.4 µM) | 2 (≈ 2.8 µM) | 2 (≈ 2.8 µM) | > 64 | > 64 | 8 (≈ 11.2 µM) | 4 (≈ 5.6 µM) | 8 (≈ 11.2 µM) | 16 (≈ 22.4 µM) | > 64 | 32 (≈ 44.8 µM) | 8 (≈ 11.2 µM) | 4 (≈ 5.6 µM) | > 64 | 16 (≈ 22.4 µM) | MIC (Gram-Negative Organisms; [10]): > 64 µg/mL |
| CC1=C\[C@@H](O)CC(=O)Cc2nc(co2)C(=O)N[C@H](Cc2ccccc2)C(=O)O[C@H](C(C)C)[C@H](C)/C=C/C(=O)NC\C=C\1 [SA0202061] | > 64 | 64 (≈ 111 µM) | > 64 | > 64 | > 64 | 16 (≈ 27.7 µM) | 4 (≈ 6.92 µM) | 4 (≈ 6.92 µM) | > 64 | > 64 | 64 (≈ 111 µM) | 64 (≈ 111 µM) | 64 (≈ 111 µM) | 64 (≈ 111 µM) | > 64 | 16 (≈ 27.7 µM) | > 64 | 32 (≈ 55.4 µM) | 32 (≈ 55.4 µM) | 64 (≈ 111 µM) | – |
| CC1=C\[C@@H](O)CC(=O)Cc2nc(c([Si](C)(C)C)o2)C(=O)N2CCC[C@@H]2C(=O)O[C@H](C(C)C)[C@H](C)/C=C/C(=O)NC\C=C\1 [SA0110261] | > 64 | – | > 64 | > 64 | > 64 | > 64 | 64 (≈ 107 µM) | 16 (≈ 26.7 µM) | > 64 | > 64 | > 64 | 64 (≈ 107 µM) | 64 (≈ 107 µM) | > 64 | > 64 | 64 (≈ 107 µM) | > 64 | 64 (≈ 107 µM) | > 64 | > 64 | MIC [2]: > 64 µg/mL; MIC (Gram-Negative Organisms; [10]): > 64 µg/mL |
| CC1=C\[C@@H](O)CC(=O)Cc2nc(co2)C(=O)N2CCC[C@@H]2C(=O)O[C@H]([C@@H](C)COC(=O)Nc2ccc(Br)nc2)[C@H](C)/C=C/C(=O)NC\C=C\1 [SA0110082] | > 64 | > 64 | > 64 | > 64 | > 64 | 32 (≈ 43.1 µM) | 4 (≈ 5.39 µM) | 16 (≈ 21.5 µM) | > 64 | > 64 | > 64 | 32 (≈ 43.1 µM) | > 64 | > 64 | > 64 | 8 (≈ 10.8 µM) | 64 (≈ 86.2 µM) | 32 (≈ 43.1 µM) | > 64 | > 64 | – |
| CC1=C\[C@@H](O)CC(=O)Cc2nc(co2)C(=O)N2CCC[C@@H]2C(=O)O[C@H](C(C)C)[C@H](C)/C=C/C(=O)NC\C=C\1 [virginiamycin M2, Virginiamycin M2, reference compound] | > 64 | > 64 | > 64 | > 64 | > 64 | 2 (≈ 3.79 µM) | 2 (≈ 3.79 µM) | 2 (≈ 3.79 µM) | > 64 | > 64 | 16 (≈ 30.3 µM) | 8 (≈ 15.2 µM) | 16 (≈ 30.3 µM) | 32 (≈ 60.6 µM) | > 64 | 8 (≈ 15.2 µM) | 16 (≈ 30.3 µM) | 4 (≈ 7.58 µM) | > 64 | 8 (≈ 15.2 µM) | – |
| CC1=C\[C@@H](O)CC(=O)Cc2nc(co2)C(=O)N2CCC[C@@H]2C(=O)O[C@H]([C@H](C)COC(=O)Nc2coc(C)n2)[C@H](C)/C=C/C(=O)NC\C=C\1 [SA0110210] | > 64 | > 64 | > 64 | > 64 | > 64 | > 64 | 8 (≈ 12 µM) | 8 (≈ 12 µM) | > 64 | > 64 | > 64 | > 64 | > 64 | > 64 | > 64 | 64 (≈ 95.8 µM) | 16 (≈ 24 µM) | 64 (≈ 95.8 µM) | > 64 | 64 (≈ 95.8 µM) | MIC (Gram-Negative Organisms; [10]): > 64 µg/mL |
| CC1=C\[C@@H](O)CC(=O)Cc2nc(co2)C(=O)N[C@H](C)C(=O)O[C@H](C(C)C)[C@H](C)/C=C/C(=O)NC\C=C\1 [madumycin I, Madumycin I, reference compound] | > 64 | 64 (≈ 128 µM) | > 64 | > 64 | > 64 | 0.5 (≈ 0.997 µM) | 2 (≈ 3.99 µM) | 0.25 (≈ 0.498 µM) | > 64 | 64 (≈ 128 µM) | 8 (≈ 15.9 µM) | 4 (≈ 7.97 µM) | 8 (≈ 15.9 µM) | 8 (≈ 15.9 µM) | > 64 | 4 (≈ 7.97 µM) | 8 (≈ 15.9 µM) | 2 (≈ 3.99 µM) | 32 (≈ 63.8 µM) | 4 (≈ 7.97 µM) | – |
| CC1=C\[C@@H](O)CC(=O)Cc2nc(co2)C(=O)N2CCC[C@@H]2C(=O)O[C@H]([C@H](C)COC(=O)Nc2ccn(C)n2)[C@H](C)/C=C/C(=O)NC\C=C\1 [SA0110218] | > 64 | > 64 | > 64 | > 64 | > 64 | > 64 | 16 (≈ 24 µM) | 32 (≈ 48 µM) | > 64 | > 64 | > 64 | > 64 | > 64 | > 64 | > 64 | > 64 | 32 (≈ 48 µM) | > 64 | > 64 | > 64 | MIC (Gram-Negative Organisms; [10]): > 64 µg/mL |
| CC1=C\[C@@H](O)CC(=O)Cc2nc(co2)C(=O)N2CCC[C@@H]2C(=O)O[C@H]([C@H](C)COC(=O)Nc2ccc(C)cc2)[C@H](C)/C=C/C(=O)NC\C=C\1 [SA0110184] | > 64 | > 64 | > 64 | > 64 | > 64 | > 64 | 4 (≈ 5.91 µM) | 2 (≈ 2.96 µM) | > 64 | > 64 | 16 (≈ 23.6 µM) | 16 (≈ 23.6 µM) | 16 (≈ 23.6 µM) | 32 (≈ 47.3 µM) | > 64 | 32 (≈ 47.3 µM) | 16 (≈ 23.6 µM) | 16 (≈ 23.6 µM) | > 64 | 16 (≈ 23.6 µM) | MIC (Gram-Negative Organisms; [10]): > 64 µg/mL |
